Source: US20070128217A1 (priority 2003, published 2007)

Columns and labels:
[1] = test system: recombinant human anti-SARS-CoV antibody 03-018; format: binding; set-up: Binding of antibody 03-018 to linear peptides of the N protein of SARS-CoV Urbani / Binding of antibody 03-018 to looped/cyclic peptides of the N protein of SARS-CoV Urbani: unit not given here
[2] = test system: control sera (pooled serum of ten healthy LUMC hospital workers; commercial negative donor pooled serum from the Dutch bloodbank); format: binding, human; set-up: Binding of Control serum LUMC to linear peptides / Binding of Control serum Blood-bank to linear peptides / Binding of Control serum LUMC to looped peptides / Binding of Control Serum Blood-Bank to Looped peptides / Binding of Control serum LUMC to linear peptides of the protein M of SARS-CoV Urbani / Binding of Control serum Blood-bank to linear peptides of the protein M of SARS-CoV Urbani / Binding of Control serum LUMC to looped peptides of the protein M of SARS-CoV Urbani / Binding of Control Serum Blood-Bank to Looped peptides of the protein M of SARS-CoV Urbani: unit not given here
[3] = test system: antibodies in sera from SARS patients (sera 1a, 1b, 2, 6, 37, 62, London, SARS-yellow, SARS-green); format: binding, human; set-up: Binding of serum 6 to linear peptides of protein X1 of SARS-CoV Urbani / Binding of serum 37 to linear peptides of protein X1 of SARS-CoV Urbani / Binding of serum 6 to looped/cyclic peptide (PEPSCAN-ELISA) / Binding of serum 37 to looped/cyclic peptide (PEPSCAN-ELISA) / Binding of serum 37 to looped/cyclic peptides of protein X1 of SARS-CoV Urbani / Binding of serum 6 to linear peptides of protein X2 / Binding of serum 37 to linear peptides of protein X2 / Binding of serum 37 to looped/cyclic peptides of protein X2 of SARS-CoV Urbani / Binding of serum 6 to linear peptides of protein M of SARS-CoV Urbani / Binding of serum 37 to linear peptides of protein M of SARS-CoV Urbani / Binding of serum 6 to looped/cyclic peptides of protein M of SARS-CoV Urbani / Binding of serum 37 to looped/cyclic peptides of protein M of SARS-CoV Urbani / Binding of serum 6 to linear peptides of protein X3 of SARS-CoV Urbani / Binding of serum 37 to linear peptides of protein X3 of SARS-CoV Urbani / Binding of serum 37 to looped/cyclic peptides of protein X3 of SARS-CoV Urbani / Binding of serum 6 to linear peptides of protein X4 of SARS-CoV Urbani / Binding of serum 37 to linear peptides of protein X4 of SARS-CoV Urbani / Binding of serum 37 to looped/cyclic peptides of protein X4 of SARS-CoV Urbani / Binding of serum 6 to linear peptides of protein X5 of SARS-CoV Urbani / Binding of serum 37 to linear peptides of protein X5 of SARS-CoV Urbani / Binding of serum 37 to looped/cyclic peptides of protein X5 of SARS-CoV Urbani / Binding of serum 6 to linear peptides of protein N of SARS-CoV Urbani / Binding of serum 37 to linear peptides of protein N of SARS-CoV Urbani / Binding of serum 6 to linear peptide (PEPSCAN-ELISA) / Binding of serum 1a to looped/cyclic peptides of protein N of SARS-CoV Urbani / Binding of serum 1b to looped/cyclic peptides of protein N of SARS-CoV Urbani / Binding of serum 2 to looped/cyclic peptides of protein N of SARS-CoV Urbani / Binding of serum 6 to looped/cyclic peptides of protein N of SARS-CoV Urbani / Binding of serum 37 to looped/cyclic peptides of protein N of SARS-CoV Urbani / Binding of serum 62 to looped/cyclic peptides of protein N of SARS-CoV Urbani / Binding of serum London to looped/cyclic peptides of protein N of SARS-CoV Urbani / Binding of serum SARS-green to looped/cyclic peptides of protein N of SARS-CoV Urbani: unit not given here
[4] = test system: rabbit serum obtained by immunizing a rabbit with the SARS-CoV strain Frankfurt 1; format: binding; set-up: Binding of a rabbit serum to linear peptides / Binding of a rabbit serum to looped peptides / Rabbit serum linear peptides / Rabbit serum looped peptides / Binding of a rabbit serum to linear peptides of protein N of SARS-CoV Urbani (Rabbit serum linear peptides) / Binding of a rabbit serum to looped/cyclic peptides of protein N of SARS-CoV Urbani (Rabbit serum looped peptides): unit not given here

Sequence	Binding of antibody 03-018 to linear peptides of the N protein of SARS-CoV Urbani [1]	Binding of antibody 03-018 to looped/cyclic peptides of the N protein of SARS-CoV Urbani [1]	Binding of serum 1a to linear peptides of protein N of SARS-CoV Urbani [3]	Binding of serum 1a to looped/cyclic peptides of protein N of SARS-CoV Urbani [3]	Binding of serum 1b to linear peptides of protein N of SARS-CoV Urbani [3]	Binding of serum 1b to looped/cyclic peptides of protein N of SARS-CoV Urbani [3]	Binding of serum 2 to linear peptides of protein N of SARS-CoV Urbani [3]	Binding of serum 2 to looped/cyclic peptides of protein N of SARS-CoV Urbani [3]	Binding of serum 6 to linear peptides of protein N of SARS-CoV Urbani [3]	Binding of serum 6 to looped/cyclic peptides of protein N of SARS-CoV Urbani [3]	Binding of serum 37 to linear peptides of protein N of SARS-CoV Urbani [3]	Binding of serum 37 to looped/cyclic peptides of protein N of SARS-CoV Urbani [3]	Binding of serum 62 to linear peptides of protein N of SARS-CoV Urbani [3]	Binding of serum 62 to looped/cyclic peptides of protein N of SARS-CoV Urbani [3]	Binding of serum London to linear peptides of protein N of SARS-CoV Urbani [3]	Binding of serum London to looped/cyclic peptides of protein N of SARS-CoV Urbani [3]	Binding of serum SARS-green to linear peptides of protein N of SARS-CoV Urbani [3]	Binding of serum SARS-green to looped/cyclic peptides of protein N of SARS-CoV Urbani [3]	Binding of serum SARS-yellow to linear peptides of protein N of SARS-CoV Urbani [3]	Binding of serum SARS-yellow to looped/cyclic peptides of protein N of SARS-CoV Urbani [3]	also measured
YHGAIKLDDKDPQFK	0.1	0.2	0.3	0.2	0.2	0.1	0.3	0.2	0.2	0.1	0.8	0.4	1.6	0.3	0.7	0.3	0.9	0.1	0.7	0.1	Control Serum Blood-Bank Looped peptides [2]: 0.4; Control serum Blood-bank linear peptides [2]: 0.9; Control serum LUMC linear peptides [2]: 0.9; Control serum LUMC looped peptides [2]: 0.3; Binding of a rabbit serum to linear peptides of protein N of SARS-CoV Urbani (Rabbit serum linear peptides) [4]: 0.2; Binding of a rabbit serum to looped/cyclic peptides of protein N of SARS-CoV Urbani (Rabbit serum looped peptides) [4]: 0.3
YKHWPQIAQFAPSAS	0.1	0.2	0.3	0.5	0.1	0.3	0.2	0.5	0.2	0.3	0.8	0.7	0.7	0.7	0.6	0.5	0.4	0.4	0.7	0.6	Control Serum Blood-Bank Looped peptides [2]: 0.8; Control serum Blood-bank linear peptides [2]: 0.9; Control serum LUMC linear peptides [2]: 0.7; Control serum LUMC looped peptides [2]: 0.8; Binding of a rabbit serum to linear peptides of protein N of SARS-CoV Urbani (Rabbit serum linear peptides) [4]: 0.1; Binding of a rabbit serum to looped/cyclic peptides of protein N of SARS-CoV Urbani (Rabbit serum looped peptides) [4]: 0.5
YNVTQAFGRRGPEQT	0.1	0.2	–	0.3	–	0.2	–	0.3	–	0.1	–	0.5	–	0.3	–	0.3	–	0.2	–	0.3	Binding of Control Serum Blood-Bank to Looped peptides [2]: 0.5; Binding of Control serum Blood-bank to linear peptides [2]: 0.7; Binding of Control serum LUMC to linear peptides [2]: 0.6; Binding of Control serum LUMC to looped peptides [2]: 0.5; Binding of serum 1a to linear peptide (PEPSCAN-ELISA) [3]: 0.3; Binding of serum 1b to linear peptide (PEPSCAN-ELISA) [3]: 0.1; Binding of serum 2 to linear peptide (PEPSCAN-ELISA) [3]: 0.2; Binding of serum 6 to linear peptide (PEPSCAN-ELISA) [3]: 0.2; Binding of serum 37 to linear peptide (PEPSCAN-ELISA) [3]: 0.7; Binding of serum 62 to linear peptide (PEPSCAN-ELISA) [3]: 0.7; Binding of serum London to linear peptide (PEPSCAN-ELISA) [3]: 0.5; Binding of serum SARS-green to linear peptide (PEPSCAN-ELISA) [3]: 0.6; Binding of serum SARS-yellow to linear peptide (PEPSCAN-ELISA) [3]: 0.6; Recognition of the peptide by the rabbit serum [4]: recognized
YRRATRRVRGGDGKM	0.1	0.2	0.3	0.2	0.1	0.1	0.3	0.2	0.3	0.1	0.8	0.4	0.7	0.3	0.5	0.3	0.4	0.2	0.6	0.1	Binding of Control Serum Blood-Bank to Looped peptides [2]: 0.4; Binding of Control serum Blood-bank to linear peptides [2]: 0.8; Binding of Control serum LUMC to linear peptides [2]: 0.7; Binding of Control serum LUMC to looped peptides [2]: 0.3; Binding of a rabbit serum to linear peptides of protein N of SARS-CoV Urbani (Rabbit serum linear peptides) [4]: 0.2; Binding of a rabbit serum to looped/cyclic peptides of protein N of SARS-CoV Urbani (Rabbit serum looped peptides) [4]: 0.0
